Assay results taken from patent publication US10287615B2, “Sophorolactone production” (ECOVER CO-ORDINATION CENTER N.V., priority 2011, dated 2019).

Assays:
[1] = Stain removal efficacy in automatic dishwashing on soil plates; settings: for average Rw (Y reflection value for washed): 1.4% surfactant in base formula, 50° C. eco; for soil removal: Rw minus Rs
Source text: A sophorolipid lactone sample obtained from the experiment described in Example 8 was centrifuged, spread out on Torck paper and allowed to air dry. The resulting solid was crushed with a coffee mill to a fine powder and dried further with compressed air to >98 wt %. This powder was compared as to its efficiency in automatic dishwashing versus a low foaming alkylpolyglucoside, in particular Simulsol AS48, available from Seppic SA, at equal active matter content. […] 20 gram of the base formula was dosed in a ZDF211 dishwasher. Program D 50° C. eco was run.
In the automatic dishwasher 7 types of soil plates (available from CFT, Vlaardingen, The Netherlands) mounted in a stainless steel holding frame were inserted.

[2] = Static surface tension, pending drop method on a Krüss DSA100 tensiometer; format: physicochemical; settings: water 71.26
Method: The lactone obtained in Example 10 was partially hydrolysed in degrees ranging from 0 to 2 equivalents using potassium hydroxide. Partial alkaline hydrolysis in this context implies that less than 3 mol KOH were added per mol lactone. As a consequence only part of the 3 ester bonds, i.e. the lactonic bond and the two acetyl ester bonds, was hydrolysed and a mixture of various sophorolipids formed.
The static surface tension of the partial hydrolysates obtained in the above described experiment was measured according to the pending drop method on a Krüss DSA100 tensiometer.

[3] = Storage stability of non-aqueous sophorolactone solution, HPLC-ELSD; format: physicochemical; settings: for acid sophorolipid peak (hydrolysis of lactone), share of the total peak area: 10 g sophorolactone in 90 g ethyllactate or isoamyl lactate
Method: Both samples were split in 50 ml samples and stored at 4° C. and at 40° C. respectively. After 2 months of storage they were analyzed with HPLC-ELSD. The results are as illustrated by the chromatograms depicted in FIG. 7 and FIG. 8. After 2 months of storage at either 4° C., result depicted in FIG. 7, or 40° C., result depicted in FIG. 8, of this non-aqueous sophorolactone solution only a negligible hydrolysis of lactone material occurred as evidenced by an acid sophorolipid peak appearing at 30.5 min in the grey overlay graph. This peak represents less than 1% of the total peak area.

Surface tension ([2]; Conc. 10 ppm): 71.00 mN/m | Surface tension ([2]; Conc. 50 ppm): 66.21 mN/m | Surface tension ([2]; Conc. 100 ppm): 63.02 mN/m | Surface tension ([2]; Conc. 250 ppm): 47.67 mN/m | Surface tension ([2]; Conc. 1000 ppm): 36.69 mN/m | Surface tension ([2]; Conc. 2000 ppm): 36.26 mN/m | Surface tension ([2]; Conc. 5000 ppm): 35.85 mN/m | Surface tension ([2]; Conc. 10000 ppm): 35.33 mN/m | Surface tension ([2]; Conc. 25000 ppm): 35.54 mN/m | Surface tension ([2]; Conc. 50000 ppm): 35.14 mN/m | storage stability of non-aqueous solution (chromatogram overlay) ([3]; 2 months of storage at 40° C.): storage stable | acid sophorolipid peak (hydrolysis of lactone), share of the total peak area ([3]; 2 months of storage at 4° C.): less than 1% | acid sophorolipid peak (hydrolysis of lactone), share of the total peak area ([3]; 2 months of storage at 40° C.): less than 1% | storage stability of non-aqueous solution (chromatogram overlay) ([3]; storage at 4° C. for 2 months): storage stable
Substance: sophorolactone
soil removal rates, overall comparison ([1]; automatic dishwashing, equal active matter content, alkaline pH of about 9.8): superior to Simulsol AS48 | average Rw (Y reflection value for washed) ([1]; stain Cheese DM06): 41.9 | soil removal ([1]; stain Cheese DM06): 16.9 | average Rw (Y reflection value for washed) ([1]; stain Chocolate DM75): 24.9 | soil removal ([1]; stain Chocolate DM75): 7.1 | average Rw (Y reflection value for washed) ([1]; stain Coffee DM81): 77.5 | soil removal ([1]; stain Coffee DM81): 7.3 | average Rw (Y reflection value for washed) ([1]; stain Egg yolk/milk DM31): 52.0 | soil removal ([1]; stain Egg yolk/milk DM31): 6.8 | average Rw (Y reflection value for washed) ([1]; stain Mix starch DM77): 37.6 | soil removal ([1]; stain Mix starch DM77): 1.6 | average Rw (Y reflection value for washed) ([1]; stain Red wine DM51): 72.4 | soil removal ([1]; stain Red wine DM51): 17.1 | average Rw (Y reflection value for washed) ([1]; stain Tea DM11): 75.7 | soil removal ([1]; stain Tea DM11): 14.6
